{"source": "patent US20140158116A1", "about": "“INHIBITING TRPA1 FOR THE TREATMENT OF ASTHMA” (Cubist Pharmaceuticals, Inc., priority 2012, published 2014)", "key": {"[1]": {"test_system": "Ascaris suum antigen-induced pulmonary resistance", "test": "Sheep allergic asthma model, pulmonary resistance (RL) after Ascaris suum antigen", "type": "in vivo", "description": "Compounds were tested in the sheep model of experimental asthma reported in Abraham W M, Asthma & Rhinitis, 2000: 1205-1227 incorporated herein by reference in its entirety.\nThe unsedated sheep were restrained in a cart in the prone position with their heads immobilized. After topical anesthesia of the nasal passages with 2% lidocaine solution, a balloon catheter was advanced through one nostril into the lower esophagus. The sheep were intubated with a cuffed endotracheal tube through the other nostril. Pleural pressure was estimated with the esophageal balloon catheter. Lateral pressure in the trachea was measured with a sidehole catheter (inner dimension, 2.5 mm) advanced through and positioned distal to the tip of the endotracheal tube. Transpulmonary pressure, the difference between tracheal and pleural pressure, was measured with a differential pressure transducer catheter system. For the measurement of pulmonary resistance (RL), the proximal end of the endotracheal tube was connected to a pneumotachograph. […]\nBaseline concentration response curves to aerosol Carbachol were obtained 1 to 3 days before commencement of drug/vehicle treatment. […] Baseline values of pulmonary resistance (RL) were obtained within 30 minutes of treatment and then re-measured 30 minutes before antigen challenge. […]"}, "hTRPV6": {"target": "T1, hTRPV6 (Homo sapiens, UniProt Q9H1D0)", "T1 sequence (Q9H1D0 1-765)": "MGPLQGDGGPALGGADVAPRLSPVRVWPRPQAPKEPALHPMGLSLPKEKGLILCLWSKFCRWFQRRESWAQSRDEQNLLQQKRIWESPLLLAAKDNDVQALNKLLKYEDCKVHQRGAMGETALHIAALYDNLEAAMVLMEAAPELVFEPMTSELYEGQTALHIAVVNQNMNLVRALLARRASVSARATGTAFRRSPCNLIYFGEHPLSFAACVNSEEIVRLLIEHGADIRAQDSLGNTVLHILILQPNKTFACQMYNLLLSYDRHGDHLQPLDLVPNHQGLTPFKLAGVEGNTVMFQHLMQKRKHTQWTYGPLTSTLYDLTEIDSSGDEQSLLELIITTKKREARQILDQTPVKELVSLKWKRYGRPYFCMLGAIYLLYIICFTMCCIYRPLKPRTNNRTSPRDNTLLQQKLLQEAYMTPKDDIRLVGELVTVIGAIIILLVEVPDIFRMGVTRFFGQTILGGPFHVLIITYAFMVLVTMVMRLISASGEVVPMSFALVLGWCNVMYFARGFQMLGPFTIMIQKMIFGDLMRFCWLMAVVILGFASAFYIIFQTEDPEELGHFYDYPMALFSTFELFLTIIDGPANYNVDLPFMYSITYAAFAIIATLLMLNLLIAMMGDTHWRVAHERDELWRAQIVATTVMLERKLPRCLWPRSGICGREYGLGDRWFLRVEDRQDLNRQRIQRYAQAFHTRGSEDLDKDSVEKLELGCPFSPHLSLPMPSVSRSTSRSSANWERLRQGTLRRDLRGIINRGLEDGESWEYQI", "test": "Patch clamp selectivity, hTRPV6", "type": "cell-based", "description": "Data for TRPA1 inhibition and the selectivity of TRPA1 inhibition was obtained by this method for the compound of Formula (Ia) and included in Table 1 and Table 2. All currents were recorded in whole-cell configuration using EPC-9 and EPC-10 amplifiers and Patchmaster software (HEKA). […] The standard pipette solution consisted of 140 mM CsAsp, 10 mM EGTA, 10 mM HEPES, 2.27 mM MgCl2, 1.91 mM CaCl2, 4 mM MgATP, and 0.1-0.3 mM Na2GTP, with pH adjusted to 7.2 with CsOH. In addition, a solution containing 145 mM CsCl, 10 mM HEPES, 10 mM EGTA and 1 mM MgCl2 (pH 7.2 adjusted with CsOH) can be used. The standard bath solution contained 150 mM NaCl, 10 mM HEPES, 10 mM glucose, 4.5 mM KCl, 1 mM EGTA, 3 mM MgCl2, with pH adjusted to 7.4 with NaOH. In some instances, 2 mM CaCl2 was added in place of EGTA and the concentration of MgCl2 was reduced to 1 mM.\nData were collected either by continuous recordings at −60 mV or by applying voltage ramps from a holding potential of 0 mV every 4 s. […] Inward and outward currents were analyzed from the ramps at −80 and 80 mV, respectively. […]\nSolutions were switched using a gravity-fed continuous focal perfusion system. […] Temperatures were confirmed using a thermistor (Warner Instruments, TA-29), with temperatures at the recorded cell estimated to be within +/−2° C. of those reported. […]"}}, "data": [{"compound": "C[C@H]1CCCN1c1ncc(-c2cccc(NC(=O)Cn3cnc4c3c(=O)n(C)c(=O)n4C)n2)cn1", "note": "[Formula (Ia)]", "values": [{"measurement": "inhibition of late phase pulmonary resistance response", "setting": "[1]; 5 mg/kg PO daily for 4 days", "result": "~45", "unit": "%"}, {"measurement": "inhibition of late phase pulmonary resistance response", "setting": "[1]; 10 mg/kg PO daily for 4 days", "result": "approximately 75%"}, {"measurement": "Fold Selectivity Compared to TRPA1", "setting": "hTRPV6", "result": "~370", "unit": "fold"}, {"measurement": "IC50", "setting": "hTRPV6; Voltage, Inward (−80 mV)", "result": 34, "unit": "µM"}]}]}
